From patent US6924279B2, “Crystalline 1-methylcarbapenem derivatives” (Sankyo Company, Limited, priority 1999, dated 2005)
Where two headings read alike, the source gives them in different places.

Key:
[1] = Stability test in desiccator at 40° C. and 75% relative humidity (HPLC remaining amount); type: physicochemical
Protocol: (§1) The crystalline compounds obtained in Example 1, 2, 4 and 5 were kept for about 2 months in a desiccator at 40° C. and 75% relative humidity and in a desiccator at 60° C. in which silica gel was placed, respectively. The non-crystalline powdered compound (lyophilized product) obtained according to the procedure described in U.S. Pat. No. 6,090,802 Example 72 and in Japanese Patent Application Publication No. Hei-11-071277, which is a reference sample, was kept under the same conditions described above. The remaining amount of the crystalline compounds and the non-crystalline powdered compound were determined after 7, 20, 21, 28, and 56 days by high pressure liquid chromatography on a L-Column ODS (4.6 mm Φ×150 mm, (trade mark) manufactured by Kagakuhinn kennsa kyoukai) eluting with 20 mM KH2PO4 (pH 7.0): CH3CN=96:4 at 1.0 ml/minute at 60° C. using an ultraviolet wave length of 300 nm. The remaining percentages of these compounds were calculated from the remaining amount of them and show in Tables 1-4.

[2] = Stability test in desiccator at 60° C. in which silica gel was placed (HPLC remaining amount); type: physicochemical; details: desiccator at 60° C. with silica gel
Protocol: as §1

[3] = test system: S. aureus 535 (MRSA); assay: Antibiotic activity test, agar-plate dilution method; type: cell-based, Staphylococcus aureus
Protocol: (§2) The MIC (μg/ml), the lowest concentration of antibiotic which inhibits growth of the test bacterial strain, was determined by the agar-plate dilution method. The crystalline compounds obtained in Example 1, 2, 4 and 5 of this invention were evaluated against various bacterial strains by determining the MIC of each compound with respect to each strain.

[4] = test system: E. coli 609; assay: as above; type: cell-based, Escherichia coli
Protocol: as §2

[5] = test system: Enterobacter cloacae 963; assay: as above; type: cell-based
Protocol: as §2

[6] = test system: Escherichia coli NIHJ; assay: as above; type: cell-based
Protocol: as §2

[7] = test system: Klebisella pneumoniae 806; assay: as above; type: cell-based
Protocol: as §2

[8] = test system: Pseudomonas aeruginosa 1001; assay: as above; type: cell-based
Protocol: as §2

[9] = test system: Serratia marcescens 1184; assay: as above; type: cell-based
Protocol: as §2

[10] = test system: Staphylococcus aureus 209P; assay: as above; type: cell-based
Protocol: as §2

[11] = test system: K. pneumoniae 846; assay: as above; type: cell-based, Klebisella pneumoniae
Protocol: as §2

CCO.C[C@@H](O)[C@H]1C(=O)N2C(C(=O)O)=C(S[C@H]3C[C@@H](C(=O)N4CC[C@H](NC(=O)CNC(=N)N)C4)N(C)C3)[C@H](C)[C@H]12.O=C(O)O [Example 1, (1R,5S,6S)-2-[(2S,4S)-2-[(3S)-3-(2-Guanidinoacetylamino)pyrrolidin-1-ylcarbonyl]-1-methylpyrrolidin-4-ylthio]-6-[(1R)-1-hydroxyethyl]-1-methyl-1-carbapen-2-em-3-carboxylic acid.1/2 Carbonate.1/2 Ethanol]
Remaining percentage of compound ([1]; After 20 days): 98.5% | Remaining percentage of compound ([1]; After 56 days): 92.9% | Remaining percentage of compound ([2]; After 21 days): 98.5% | Remaining percentage of compound ([2]; After 56 days): 96.4% | Antibiotic activity (MIC) [3]: 1.5 µg/mL | Antibiotic activity (MIC) [4]: 0.02 µg/mL | Antibiotic activity (MIC) [5]: 0.05 µg/mL | Antibiotic activity (MIC) [6]: ≦0.01 μg/ml | Antibiotic activity (MIC) [7]: ≦0.01 μg/ml | Antibiotic activity (MIC) [8]: 0.2 µg/mL | Antibiotic activity (MIC) [9]: ≦0.01 μg/ml | Antibiotic activity (MIC) [10]: ≦0.01 μg/ml | Antibiotic activity (MIC) [11]: ≦0.01 μg/ml

CCO.C[C@@H](O)[C@H]1C(=O)N2C(C(=O)O)=C(S[C@H]3C[C@@H](C(=O)N4CC[C@H](NC(=O)CNC(=N)N)C4)N(C)C3)[C@H](C)[C@H]12.C[C@@H](O)[C@H]1C(=O)N2C(C(=O)O)=C(S[C@H]3C[C@@H](C(=O)N4CC[C@H](NC(=O)CNC(=N)N)C4)N(C)C3)[C@H](C)[C@H]12 [Example 2, (1R,5S,6S)-2-[(2S,4S)-2-[(3S)-3-(2-Guanidinoacetylamino)pyrrolidin-1-ylcarbonyl]-1-methylpyrrolidin-4-ylthio]-6-[(1R)-1-hydroxyethyl]-1-methyl-1-carbapen-2-em-3-carboxylic Acid.1/2 Ethanol]
Remaining percentage of compound ([1]; After 20 days): 95.8% | Remaining percentage of compound ([1]; After 56 days): 87.3% | Remaining percentage of compound ([2]; After 21 days): 100.1% | Remaining percentage of compound ([2]; After 56 days): 96.8% | Antibiotic activity (MIC) [3]: 1.5 µg/mL | Antibiotic activity (MIC) [4]: ≦0.01 μg/ml | Antibiotic activity (MIC) [5]: 0.05 µg/mL | Antibiotic activity (MIC) [6]: ≦0.01 μg/ml | Antibiotic activity (MIC) [7]: ≦0.01 μg/ml | Antibiotic activity (MIC) [8]: 0.2 µg/mL | Antibiotic activity (MIC) [9]: ≦0.01 μg/ml | Antibiotic activity (MIC) [10]: ≦0.01 μg/ml | Antibiotic activity (MIC) [11]: ≦0.01 μg/ml

C[C@@H](O)[C@H]1C(=O)N2C(C(=O)O)=C(S[C@H]3C[C@@H](C(=O)N4CC[C@H](NC(=O)CNC(=N)N)C4)N(C)C3)[C@H](C)[C@H]12 [Example 4, (1R,5S,6S)-2-[(2S,4S)-2-[(3S)-3-(2-Guanidinoacetylamino)pyrrolidin-1-ylcarbonyl]-1-methylpyrrolidin-4-ylthio]-6-[(1R)-1-hydroxyethyl]-1-methyl-1-carbapen-2-em-3-carboxylic Acid]
Remaining percentage of compound ([1]; After 20 days): 99.4% | Remaining percentage of compound ([1]; After 56 days): 94.3% | Remaining percentage of compound ([2]; After 21 days): 100.4% | Remaining percentage of compound ([2]; After 56 days): 100.9% | Antibiotic activity (MIC) [3]: 1.5 µg/mL | Antibiotic activity (MIC) [4]: 0.02 µg/mL | Antibiotic activity (MIC) [5]: 0.05 µg/mL | Antibiotic activity (MIC) [6]: ≦0.01 μg/ml | Antibiotic activity (MIC) [7]: ≦0.01 μg/ml | Antibiotic activity (MIC) [8]: 0.2 µg/mL | Antibiotic activity (MIC) [9]: ≦0.01 μg/ml | Antibiotic activity (MIC) [10]: ≦0.01 μg/ml | Antibiotic activity (MIC) [11]: ≦0.01 μg/ml

C[C@@H](O)[C@H]1C(=O)N2C(C(=O)O)=C(S[C@H]3C[C@@H](C(=O)N4CC[C@H](NC(=O)CNC(=N)N)C4)N(C)C3)[C@H](C)[C@H]12 [Example 5, (1R,5S,6S)-2-[(2S,4S)-2-[(3S)-3-(2-Guanidinoacetylamino)pyrrolidin-1-ylcarbonyl]-1-methylpyrrolidin-4-ylthio]-6-[(1R)-1-hydroxyethyl]-1-methyl-1-carbapen-2-em-3-carboxylate.1/4 Ethanol.3/2 Hydrate]
Remaining percentage of compound ([1]; After 7 days): 98.9% | Remaining percentage of compound ([1]; After 28 days): 94.6% | Remaining percentage of compound ([1]; After 56 days, Hydrate): 83.2% | Remaining percentage of compound ([2]; After 7 days): 98.3% | Remaining percentage of compound ([2]; After 28 days): 97.0% | Remaining percentage of compound ([2]; After 56 days, Hydrate): 97.6% | Antibiotic activity (MIC) ([4]; Hydrate): ≦0.01 μg/ml | Antibiotic activity (MIC) ([8]; Hydrate): 0.39 µg/mL
